Results: the supplement of paper PMC13380429

Key:
Conditions in all cases: 72 h
[1] = test system: HepG2; experiment: relative viability EC50 (midpoint between 100% and the lowest measured viability); higher = less toxic
[2] = test system: Calu-3; experiment: as above
[3] = test system: Vero E6; experiment: as above
[4] = test system: Caco-2; experiment: as above
[5] = test system: HepG2; experiment: drug sensitivity score (DSS) for viability; higher = more toxic; extreme values may be limits of the assay
[6] = test system: Calu-3; experiment: as above
[7] = test system: U2OS; experiment: as above
[8] = test system: Vero E6; experiment: as above
[9] = test system: Caco-2; experiment: as above
[10] = test system: HepG2; experiment: cell viability relative to DMSO; higher = less toxic
[11] = test system: Calu-3; experiment: as above
[12] = test system: U2OS; experiment: as above
[13] = test system: Vero E6; experiment: as above
[14] = test system: Caco-2; experiment: as above
[15] = test system: U2OS; experiment: relative viability EC50 (midpoint between 100% and the lowest measured viability); higher = less toxic

With `Nc1nc2[nH]cc(CCc3ccc(C(=O)N[C@@H](CCC(=O)O)C(=O)O)cc3)c2c(=O)[nH]1` [pemetrexed] the “relative viability EC50” value [1] was 0.558 µM, the “relative viability EC50” value [2] was greater than 10 µM and the “relative viability EC50” value [3] was 0.768 µM. For the same compound, the “relative viability EC50” value [4] was greater than 10 µM, the drug sensitivity score [5] was 11.8 and the drug sensitivity score [6] was 3.7. It also gave a drug sensitivity score [7] of 1.4, a drug sensitivity score [8] of 6.5 and a drug sensitivity score [9] of 1.2. The cell viability ([10]; 1 nM) was 85.4%, the cell viability ([10]; 10 nM) was 100% and the cell viability ([10]; 100 nM) was 97.3%. The cell viability ([10]; 1000 nM) was 39.4%, the cell viability ([10]; 10000 nM) was 20.1% and the cell viability ([11]; 1 nM) was 108%. The cell viability ([11]; 10 nM) was 91.9%, the cell viability ([11]; 100 nM) was 86.6% and the cell viability ([11]; 1000 nM) was 83.3%. For the same compound, the cell viability ([11]; 10000 nM) was 76%, the cell viability ([12]; 1 nM) was 103% and the cell viability ([12]; 10 nM) was 95.5%. It also gave a cell viability ([12]; 100 nM) of 107%, a cell viability ([12]; 1000 nM) of 100% and a cell viability ([12]; 10000 nM) of 68%. The cell viability ([13]; 1 nM) was 85.2%, the cell viability ([13]; 10 nM) was 99.1% and the cell viability ([13]; 100 nM) was 91.6%. The cell viability ([13]; 1000 nM) was 70.9%, the cell viability ([13]; 10000 nM) was 45% and the cell viability ([14]; 1 nM) was 105%. It also gave a cell viability ([14]; 10 nM) of 86.8%, a cell viability ([14]; 100 nM) of 87.4% and a cell viability ([14]; 1000 nM) of 96.5%. For the same compound, the cell viability ([14]; 10000 nM) was 79.3%.

With `CC[C@H]1OC(=O)[C@@](C)(F)C(=O)[C@H](C)[C@@H](O[C@@H]2O[C@H](C)C[C@H](N(C)C)[C@H]2O)[C@](C)(OC)C[C@@H](C)C(=O)[C@H](C)[C@H]2N(CCCCn3cc(-c4cccc(N)c4)nn3)C(=O)O[C@]12C` [solithromycin] the “relative viability EC50” value [2] was greater than 10 µM, the “relative viability EC50” value [15] was greater than 10 µM and the “relative viability EC50” value [3] was greater than 10 µM. The “relative viability EC50” value [4] was greater than 10 µM, the drug sensitivity score [5] was 3.1 and the drug sensitivity score [6] was 0. The drug sensitivity score [7] was 0, the drug sensitivity score [8] was 0 and the drug sensitivity score [9] was 0. The cell viability ([10]; 1 nM) was 102%, the cell viability ([10]; 10 nM) was 102% and the cell viability ([10]; 100 nM) was 87.4%. The cell viability ([10]; 1000 nM) was 94.2%, the cell viability ([10]; 10000 nM) was 58.7% and the cell viability ([11]; 1 nM) was 104%. The cell viability ([11]; 10 nM) was 100%, the cell viability ([11]; 100 nM) was 98.4% and the cell viability ([11]; 1000 nM) was 97.2%. It also gave a cell viability ([11]; 10000 nM) of 89.8%, a cell viability ([12]; 1 nM) of 97.6% and a cell viability ([12]; 10 nM) of 95.5%. For the same compound, the cell viability ([12]; 100 nM) was 94.6%, the cell viability ([12]; 1000 nM) was 103% and the cell viability ([12]; 10000 nM) was 91%. For the same compound, the cell viability ([13]; 1 nM) was 98.2%, the cell viability ([13]; 10 nM) was 100% and the cell viability ([13]; 100 nM) was 97.2%. For the same compound, the cell viability ([13]; 1000 nM) was 104%, the cell viability ([13]; 10000 nM) was 93.4% and the cell viability ([14]; 1 nM) was 105%. For the same compound, the cell viability ([14]; 10 nM) was 90.6%, the cell viability ([14]; 100 nM) was 101% and the cell viability ([14]; 1000 nM) was 107%. For the same compound, the cell viability ([14]; 10000 nM) was 93.3%.

For `Oc1cccc(-c2c3nc(c(-c4cccc(O)c4)c4ccc([nH]4)c(-c4cccc(O)c4)c4nc(c(-c5cccc(O)c5)c5ccc2[nH]5)CC4)C=C3)c1` [temoporfin], the “relative viability EC50” value [1] was greater than 10 µM, the “relative viability EC50” value [2] was greater than 10 µM and the “relative viability EC50” value [3] was greater than 10 µM. For the same compound, the drug sensitivity score [5] was 0.1, the drug sensitivity score [6] was 0 and the drug sensitivity score [7] was 1.8. It also gave a drug sensitivity score [8] of 1.5, a drug sensitivity score [9] of 2.8 and a cell viability ([10]; 1 nM) of 104%. For the same compound, the cell viability ([10]; 10 nM) was 105%, the cell viability ([10]; 100 nM) was 103% and the cell viability ([10]; 1000 nM) was 106%. It also gave a cell viability ([10]; 10000 nM) of 86.4%, a cell viability ([11]; 1 nM) of 90% and a cell viability ([11]; 10 nM) of 96.7%. For the same compound, the cell viability ([11]; 100 nM) was 104%, the cell viability ([11]; 1000 nM) was 102% and the cell viability ([11]; 10000 nM) was 91.6%. For the same compound, the cell viability ([12]; 1 nM) was 100%, the cell viability ([12]; 10 nM) was 104% and the cell viability ([12]; 100 nM) was 96.6%. It also gave a cell viability ([12]; 1000 nM) of 98.9%, a cell viability ([12]; 10000 nM) of 64.7% and a cell viability ([13]; 1 nM) of 99.3%. The cell viability ([13]; 10 nM) was 100%, the cell viability ([13]; 100 nM) was 98.1% and the cell viability ([13]; 1000 nM) was 90.5%. It also gave a cell viability ([13]; 10000 nM) of 77.6%, a cell viability ([14]; 1 nM) of 96.2% and a cell viability ([14]; 10 nM) of 102%. The cell viability ([14]; 100 nM) was 94.3%, the cell viability ([14]; 1000 nM) was 94.4% and the cell viability ([14]; 10000 nM) was 61.4%.

For `c1ccc2[nH]c(-c3cscn3)nc2c1` [tiabendazole], the “relative viability EC50” value [1] was greater than 10 µM, the “relative viability EC50” value [2] was greater than 10 µM and the “relative viability EC50” value [3] was greater than 10 µM. The drug sensitivity score [5] was 0, the drug sensitivity score [6] was 0 and the drug sensitivity score [8] was 0. For the same compound, the cell viability ([10]; 1 nM) was 116%, the cell viability ([10]; 10 nM) was 104% and the cell viability ([10]; 100 nM) was 102%. It also gave a cell viability ([10]; 1000 nM) of 97.2%, a cell viability ([10]; 10000 nM) of 106% and a cell viability ([11]; 1 nM) of 105%. The cell viability ([11]; 10 nM) was 102%, the cell viability ([11]; 100 nM) was 103% and the cell viability ([11]; 1000 nM) was 97.8%. For the same compound, the cell viability ([11]; 10000 nM) was 110%, the cell viability ([13]; 1 nM) was 93.2% and the cell viability ([13]; 10 nM) was 96.8%. The cell viability ([13]; 100 nM) was 102%, the cell viability ([13]; 1000 nM) was 96.3% and the cell viability ([13]; 10000 nM) was 106%.
